IC50 data for five compounds are collected here from patent US7482345B2, “P38 kinase inhibiting agents” (priority 2005, dated 2009).

T1 sequence (P47811 whole entry): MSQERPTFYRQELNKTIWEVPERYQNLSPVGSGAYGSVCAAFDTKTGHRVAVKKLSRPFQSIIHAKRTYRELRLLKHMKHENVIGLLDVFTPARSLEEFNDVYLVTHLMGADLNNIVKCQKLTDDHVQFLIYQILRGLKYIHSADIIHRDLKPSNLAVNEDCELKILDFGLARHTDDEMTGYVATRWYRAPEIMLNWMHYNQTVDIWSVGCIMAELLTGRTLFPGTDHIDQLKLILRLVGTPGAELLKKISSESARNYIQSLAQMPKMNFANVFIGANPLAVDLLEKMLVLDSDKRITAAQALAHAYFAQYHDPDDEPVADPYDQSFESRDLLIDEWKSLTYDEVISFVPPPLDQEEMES

This experiment has as its target T1, Murine p38 (Mus musculus, UniProt P47811).
T1 construct: made in house; host or cells: Drosophila S2 cells (p38); E. coli (GST-ATF2)
Description: p38 kinase assay. Particulars: illustrative Examples; table does not say which of 'the above assays'. It counts as biochemical. How it is done: Murine p38 containing the FLAG epitope tag was expressed in Drosophila S2 cells under transcriptional control of a copper-inducible metallothionein promoter. Expression of recombinant p38 was induced by treating transfected cells with 1 mM CuSO4 for 4 hours. To generate active recombinant murine p38, CuSO4-treated S2 cells were stimulated 10 minutes prior to harvest with 400 mM NaCl, 2 mM Na3VO4, and 100 μg/L okadaic acid. Cell pellets were washed with phosphate-buffered saline, 2 mM Na3VO4, and lysed in 20 mM Tris HCl, pH 7.5, 120 mM NaCl, 1% Triton X-100, 2 mM EDTA, 20 mM NaF, 4 mM Na3VO4, 2 mM Prefabloc SC (Boehringer Mannheim). Cell lysates were centrifuged for 10 min at 13,000×g, and activated, recombinant murine p38 was immunoaffinity purified from the lysate by column chromatography through anti-FLAG M2 resin (Kodak) that had been equilibrated with lysis buffer. After loading the extract the resin was washed with 10 column volumes of lysis buffer, 10 column volumes buffer A (10 mM Tris HCl, pH 7.5, 500 mM NaCl, 20% glycerol) and 10 column volumes of buffer B (10 mM Tris HCl pH 7.5, 150 mM NaCl, 20% glycerol). The fusion protein was eluted in buffer B containing 100 μg/mL FLAG peptide (Kodak).
The N-terminal 115 amino acids of ATF-2 was expressed in E. coli as a fusion protein with glutathione-S-transferase. The fusion protein was purified over glutathione agarose according to standard procedures (Pharmacia).
p38 kinase assays were performed in a reaction volume of 100 μL in a 96-well plate, at 30° for […] under the following conditions: 25 mM Hepes, pH 7.4, 10 mMmgCl2, 20 mM β-glycerolphosphate, 2 mM DTT, 5 μM ATP, 10 μCi [γ-33P]-ATP and ˜2 μM GST-ATF2. Serial dilutions of compounds were added to each reaction in 2 μL DMSO. 2 μL of DMSO was added to the last row of each reaction plate as the no inhibitor control for each inhibitor titration. The reaction was terminated with an equal volume of a stop solution containing 100 mM EDTA and 15 mM sodium pyrophosphate. PVDF filter plates (MAIPNOB50, Millipore) were pre-wet with methanol and washed with the stop solution. 50 μL aliquots from a single reaction were applied to the filter under vacuum, and the filter was washed twice with 75 mM phosphoric acid. The filter plates were counted in a scintillation counter (Top Count, Packard) and the percent inhibition at each compound concentration is determined.
Usually IC50 stands for the concentration needed to halve the response being measured. A high value points to weaker potency in that assay. For the compound `COc1ccc(C(=O)N2CCCC2)cc1-c1c(=O)ccn2nc(Oc3ccc(F)cc3F)ccc12` [Example 4, 2-(2,4-difluorophenoxy)-5-[2-methoxy-5-(pyrrolidin-1-ylcarbonyl)phenyl]-6H-pyrido[1,2-b]pyridazin-6-one], the IC50 is 22 nM.
In the case of `CCc1ccc(C(=O)N2CCCC2)cc1-c1c(=O)ccn2nc(Oc3ccc(F)cc3F)ccc12` [Example 14, 2-(2,4-difluorophenoxy)-5-[2-ethyl-5-(pyrrolidin-1-ylcarbonyl)phenyl]-6H-pyrido[1,2-b]pyridazin-6-one] it was 59 nM; in that of `O=c1ccn2nc(NCc3ccc(F)cc3F)ccc2c1-c1c(F)cccc1F` [Example 49], 710 nM; in that of `O=c1ccn2cc(Sc3ccc(F)cc3F)ccc2c1-c1c(F)cccc1F` [Example 52, 1-(2,6-difluorophenyl)-7-[(2,4-difluorophenyl)thio]-2H-quinolizin-2-one], 320 nM.
In the case of `O=c1ccn2cc(Cc3ccc(F)cc3F)ccc2c1-c1c(F)cccc1F` [Example 53, 7-(2,4-difluorobenzyl)-1-(2,6-difluorophenyl)-2H-quinolizin-2-one] it was 93 nM.
